Data on 17 compounds can be found in patent US20260297081A1, “COMPOUNDS AND METHODS OF TREATING CANCERS” (Cullgen Inc., priority 2023, published 2026).

The subject of this assay is MCF7 cells. As to the kind of experiment: Anti-proliferation (viability) of MCF7 cells (Table 7, FIG. 2B). The format is cell-based. Particulars: Homo sapiens, MCF7, MCF7 cells, 3-6 days, 10-point serial dilution; read-out: GI IC50 in MCF-7.

A word on the IC50: it is the concentration needed to halve the response being measured. Regarding `CC(=O)c1c(C)c2cnc(Nc3ccc(N4CCC(NCC(=O)N5CCC(Nc6nc(NC(C)C)ccc6C(=O)Nc6ccc(N(C)C)nn6)CC5)CC4)cn3)nc2n(C2CCCC2)c1=O` [CPD-357, 2-((1-((1-(6-((6-acetyl-8-cyclopentyl-5-methyl-7-oxo-7,8-dihydropyrido[2,3-d]pyrimidin-2-yl)amino)pyridin-3-yl)piperidin-4-yl)glycyl)piperidin-4-yl)amino)-N-(6-(dimethylamino)pyridazin-3-yl)-6-(isopropylamino)nicotinamide], the IC50 was below 50 nM. In the case of `[2H]C([2H])([2H])Nc1ccc(C(=O)Nc2cc(C)on2)c(NC2CC(C(C)NC(=O)CN3CCN(c4ccc(Nc5ncc6c(C)c(C(C)=O)c(=O)n(C7CCCC7)c6n5)nc4)CC3)C2)n1` (centres unmarked) [CPD-361, 2-((3-(1-(2-(4-(6-((6-acetyl-8-cyclopentyl-5-methyl-7-oxo-7,8-dihydropyrido[2,3-d]pyrimidin-2-yl)amino)pyridin-3-yl)piperazin-1-yl)acetamido)ethyl)cyclobutyl)amino)-6-((methyl-d3)amino)-N-(5-methylisoxazol-3-yl)nicotinamide] it was above 100 nM; in that of `CNc1ccc(C(=O)Nc2ccc(N(C)C)nn2)c(NC2CC3(C2)CC(C(=O)N2CC(N4CCN(c5ccc(Nc6ncc7c(C)c(C(C)=O)c(=O)n(C8CCCC8)c7n6)nc5)CC4)C2)C3)n1` (centres unmarked) [CPD-362, 2-((6-(3-(4-(6-((6-acetyl-8-cyclopentyl-5-methyl-7-oxo-7,8-dihydropyrido[2,3-d]pyrimidin-2-yl)amino)pyridin-3-yl)piperazin-1-yl)azetidine-1-carbonyl)spiro[3.3]heptan-2-yl)amino)-N-(6-(dimethylamino)pyridazin-3-yl)-6-(methylamino)nicotinamide], above 100 nM; in that of `CNc1ccc(C(=O)Nc2ccc(N(C)C)nn2)c(NC2CC3(C2)CC(C(=O)N2CC4(CCN(c5ccc(Nc6ncc7c(C)c(C(C)=O)c(=O)n(C8CCCC8)c7n6)nc5)CC4)C2)C3)n1` (centres unmarked) [CPD-363], above 100 nM. Regarding `CNc1ccc(C(=O)Nc2ccc(N(C)C)nn2)c(NC2CC3(C2)CN(C(=O)C2CN(C4CCN(c5ccc(Nc6ncc7c(C)c(C(C)=O)c(=O)n(C8CCCC8)c7n6)nc5)CC4)C2)C3)n1` [CPD-364, 2-((2-(1-(1-(6-((6-acetyl-8-cyclopentyl-5-methyl-7-oxo-7,8-dihydropyrido[2,3-d]pyrimidin-2-yl)amino)pyridin-3-yl)piperidin-4-yl)azetidine-3-carbonyl)-2-azaspiro[3.3]heptan-6-yl)amino)-N-(6-(dimethylamino)pyridazin-3-yl)-6-(methylamino)nicotinamide], the IC50 is above 100 nM.

In the case of `CC(=O)c1c(C)c2cnc(Nc3ccc(N4CCN(C(C)CC(=O)NC5CC(Nc6nc(NC(C)C)ccc6C(=O)Nc6ccc(N(C)C)nn6)C5)CC4)cn3)nc2n(C2CCCC2)c1=O` (centres unmarked) [CPD-365, 2-((3-(3-(4-(6-((6-acetyl-8-cyclopentyl-5-methyl-7-oxo-7,8-dihydropyrido[2,3-d]pyrimidin-2-yl)amino)pyridin-3-yl)piperazin-1-yl)butanamido)cyclobutyl)amino)-N-(6-(dimethylamino)pyridazin-3-yl)-6-(isopropylamino)nicotinamide], the 50% inhibitory concentration (IC50) was below 50 nM.

For the compound `CC(=O)c1c(C)c2cnc(Nc3ccc(N4CCN(C5(C(=O)NC6CC7(C6)CC(Nc6nc(NC(C)C)ccc6C(=O)Nc6cn(C)c(C8CC8)n6)C7)CC5)CC4)cn3)nc2n(C2CCCC2)c1=O` (centres unmarked) [CPD-366, 2-((6-(1-(4-(6-((6-acetyl-8-cyclopentyl-5-methyl-7-oxo-7,8-dihydropyrido[2,3-d]pyrimidin-2-yl)amino)pyridin-3-yl)piperazin-1-yl)cyclopropane-1-carboxamido)spiro[3.3]heptan-2-yl)amino)-N-(2-cyclopropyl-1-methyl-1H-imidazol-4-yl)-6-(isopropylamino)nicotinamide], the IC50 is above 100 nM. To `CC(=O)c1c(C)c2cnc(Nc3ccc(N4CCN(CC(=O)N5CCC(Nc6nc(NC(C)C)ccc6C(=O)Nc6ccc(N(C)C)nn6)CC5)CC4)cn3)nc2n(C2CCCC2)c1=O` [CPD-369, 2-((1-(2-(4-(6-((6-acetyl-8-cyclopentyl-5-methyl-7-oxo-7,8-dihydropyrido[2,3-d]pyrimidin-2-yl)amino)pyridin-3-yl)piperazin-1-yl)acetyl)piperidin-4-yl)amino)-N-(6-(dimethylamino)pyridazin-3-yl)-6-(isopropylamino)nicotinamide] belongs 50 to 100 nM; to `CC(=O)c1c(C)c2cnc(Nc3ccc(N4CCN(C(C)CC(=O)N5CCC(Nc6nc(NC(C)C)ccc6C(=O)Nc6ccc(N(C)C)nn6)C5)CC4)cn3)nc2n(C2CCCC2)c1=O` (centres unmarked) [CPD-370, 2-((1-(3-(4-(6-((6-acetyl-8-cyclopentyl-5-methyl-7-oxo-7,8-dihydropyrido[2,3-d]pyrimidin-2-yl)amino)pyridin-3-yl)piperazin-1-yl)butanoyl)pyrrolidin-3-yl)amino)-N-(6-(dimethylamino)pyridazin-3-yl)-6-(isopropylamino)nicotinamide], below 50 nM. In the case of `CC(=O)c1c(C)c2cnc(Nc3ccc(N4CCN(C5(C(=O)NC6CC7(C6)CC(Nc6nc(NC(C)C)ccc6C(=O)Nc6cc(C)on6)C7)CC5)CC4)cn3)nc2n(C2CCCC2)c1=O` (centres unmarked) [CPD-371, 2-((6-(1-(4-(6-((6-acetyl-8-cyclopentyl-5-methyl-7-oxo-7,8-dihydropyrido[2,3-d]pyrimidin-2-yl)amino)pyridin-3-yl)piperazin-1-yl)cyclopropane-1-carboxamido)spiro[3.3]heptan-2-yl)amino)-6-(isopropylamino)-N-(5-methylisoxazol-3-yl)nicotinamide] it was above 100 nM; in that of `CC(=O)c1c(C)c2cnc(Nc3ccc(N4CCC(NCC(=O)N5CCC(Nc6nc(NC(C)C)ccc6C(=O)Nc6ccc(N(C)C)nn6)C5)CC4)cn3)nc2n(C2CCCC2)c1=O` (centres unmarked) [CPD-372, 2-((1-((1-(6-((6-acetyl-8-cyclopentyl-5-methyl-7-oxo-7,8-dihydropyrido[2,3-d]pyrimidin-2-yl)amino)pyridin-3-yl)piperidin-4-yl)glycyl)pyrrolidin-3-yl)amino)-N-(6-(dimethylamino)pyridazin-3-yl)-6-(isopropylamino)nicotinamide], above 100 nM. Take `CNc1ccc(C(=O)Nc2ccc(N(C)C)nn2)c(NC2CC3(C2)CC(C(=O)NC2CC4(CCN(c5ccc(Nc6ncc7c(C)c(C(C)=O)c(=O)n(C8CCCC8)c7n6)nc5)CC4)C2)C3)n1` (centres unmarked) [CPD-374, 2-((6-((7-(6-((6-acetyl-8-cyclopentyl-5-methyl-7-oxo-7,8-dihydropyrido[2,3-d]pyrimidin-2-yl)amino)pyridin-3-yl)-7-azaspiro[3.5]nonan-2-yl)carbamoyl)spiro[3.3]heptan-2-yl)amino)-N-(6-(dimethylamino)pyridazin-3-yl)-6-(methylamino)nicotinamide]: the IC50 was above 100 nM.

For `CNc1ccc(C(=O)Nc2ccc(N(C)C)nn2)c(NC2CC(C(=O)NC3CC4(CCN(c5ccc(Nc6ncc7c(C)c(C(C)=O)c(=O)n(C8CCCC8)c7n6)nc5)CC4)C3)C2)n1` (centres unmarked) [CPD-375, 2-((3-((7-(6-((6-acetyl-8-cyclopentyl-5-methyl-7-oxo-7,8-dihydropyrido[2,3-d]pyrimidin-2-yl)amino)pyridin-3-yl)-7-azaspiro[3.5]nonan-2-yl)carbamoyl)cyclobutyl)amino)-N-(6-(dimethylamino)pyridazin-3-yl)-6-(methylamino)nicotinamide], the IC50 was above 100 nM.

Consider `CNc1ccc(C(=O)Nc2ccc(N(C)C)nn2)c(NC2CC3(C2)CC(C(=O)N2CC(C4CCN(c5ccc(Nc6ncc7c(C)c(C(C)=O)c(=O)n(C8CCCC8)c7n6)nc5)CC4)C2)C3)n1` (centres unmarked) [CPD-376, 2-((6-(3-(1-(6-((6-acetyl-8-cyclopentyl-5-methyl-7-oxo-7,8-dihydropyrido[2,3-d]pyrimidin-2-yl)amino)pyridin-3-yl)piperidin-4-yl)azetidine-1-carbonyl)spiro[3.3]heptan-2-yl)amino)-N-(6-(dimethylamino)pyridazin-3-yl)-6-(methylamino)nicotinamide], for which the IC50 is above 100 nM. To `CC(=O)c1c(C)c2cnc(Nc3ccc(N4CCN(CC(=O)NC(C)C5CC(Nc6nc(NC(C)C)ccc6C(=O)Nc6cc(C)on6)C5)CC4)cn3)nc2n(C2CCCC2)c1=O` (centres unmarked) [CPD-377, 2-((3-(1-(2-(4-(6-((6-acetyl-8-cyclopentyl-5-methyl-7-oxo-7,8-dihydropyrido[2,3-d]pyrimidin-2-yl)amino)pyridin-3-yl)piperazin-1-yl)acetamido)ethyl)cyclobutyl)amino)-6-(isopropylamino)-N-(5-methylisoxazol-3-yl)nicotinamide] belongs 50 to 100 nM; to `[2H]C([2H])([2H])Nc1ccc(C(=O)Nc2ccc(N(C)C)nn2)c(NC2CC3(C2)CC(C(=O)N2CC4(CCN(c5ccc(Nc6ncc7c(C)c(C(C)=O)c(=O)n(C8CCCC8)c7n6)nc5)C4)C2)C3)n1` (centres unmarked) [CPD-378, 2-((6-(6-(6-((6-acetyl-8-cyclopentyl-5-methyl-7-oxo-7,8-dihydropyrido[2,3-d]pyrimidin-2-yl)amino)pyridin-3-yl)-2,6-diazaspiro[3.4]octane-2-carbonyl)spiro[3.3]heptan-2-yl)amino)-N-(6-(dimethylamino)pyridazin-3-yl)-6-((methyl-d3)amino)nicotinamide], above 100 nM.

Consider `[2H]C([2H])([2H])Nc1ccc(C(=O)Nc2ccc(N(C)C)nn2)c(NC2CC3(C2)CC(C(=O)N2CCC4(CCN(c5ccc(Nc6ncc7c(C)c(C(C)=O)c(=O)n(C8CCCC8)c7n6)nc5)C4)C2)C3)n1` (centres unmarked) [CPD-379, 2-((6-(7-(6-((6-acetyl-8-cyclopentyl-5-methyl-7-oxo-7,8-dihydropyrido[2,3-d]pyrimidin-2-yl)amino)pyridin-3-yl)-2,7-diazaspiro[4.4]nonane-2-carbonyl)spiro[3.3]heptan-2-yl)amino)-N-(6-(dimethylamino)pyridazin-3-yl)-6-((methyl-d3)amino)nicotinamide], for which the IC50 is above 100 nM.
